Measured values: patent US4801613A, “Bradykinin antagonist peptides” (Nova Technology Limited Partnership, priority 1987, dated 1989)
Where two headings read alike, the source gives them in different places. Non-standard residues stand in square brackets, D forms with d. Residues, ends and D or L forms follow the SMILES beside them. No end group written: not given here. 2Thi = N[C@@H](Cc1cccs1)C(=O)O

Columns and labels:
kininases [1] = details: anesthetized rat; single pass in the pulmonary circulation
kininases [2] = details: rat, in vivo
isolated rat uterus = assay type: cell-based
Protocol: (§1) The bradykinin antagonists were assayed on isolated rat uterus in natural or induced estrus and on guinea pig ileum, according to the commonly accepted assay methods for bradykinin and related kinins as described by Trautschold (Handbook of Expt. Pharmacol. Vol. 25, Springer Verlag, pp 53-55, 1970) for inhibition of the myotropic activity of bradykinin. The inhibition potencies, as determined according to the commonly accepted manner described by Schild for antagonists of biologically active compounds (Br. J. Pharmacol. 2:189, 1947), are determined on isolated rat uterus (RUT) and isolated guinea pig ileum (GPI). In the assays, a dose-response curve is determined for the reference substance bradykinin. The dose of bradykinin which produced a half maximal contraction of tissue is the ED50 dose. An amount of bradykinin equivalent to twice the ED50 dose is administered to the tissue 30 seconds after the start of incubation of the tissue with a dose of antagonist. Doses of antagonist are increased in this protocol until pre-incubation with a dose of antagonist reduces the contraction in response to the double ED50 dose of bradykinin to response of a single ED50 dose of bradykinin. The pA2 value represents the negative logarithm of the molar concentration of antagonist necessary to reduce the response of a double ED50 dose of bradykinin to that of an ED50 dose. One unit of pA2 value represents an order of magnitude change in potency. For comparison, the negative log of the dose of BK, the dose which causes half maximal contraction of the tissues, is commonly known as the pD2 value. The pD2 value for bradykinin is 7.9 on the rat uterus and 7.4 on the guinea pig ileum.

[3] = tested on: isolated guinea pig ileum; assay type: cell-based
Protocol: as §1
(§2) In each case, as shown, the BK-related antagonists inhibited contractions produced by BK-related agonists, but had no effect on the non-kinin myotropic peptide substances. The inhibition potencies are listed as pA2 values as described above.

kininases [4] = details: anesthetized rat; Roblero, Ryan and Stewart 1973; cited from earlier work
[5] = Ferreira & Vane 1967; cited from earlier work
guinea pig ileum = assay type: cell-based
Protocol: as §1, §2

N=C(N)NCCC[C@H](NC(=O)[C@H](Cc1cccs1)NC(=O)[C@@H]1CCCN1C(=O)[C@H](CO)NC(=O)[C@H](Cc1cccs1)NC(=O)CNC(=O)[C@@H]1CCCN1C(=O)[C@@H]1CCCN1C(=O)[C@H](CCCNC(=N)N)NC(=O)[C@H](CCCCN)NC(=O)[C@@H](N)CCCCN)C(=O)O [Lys--Lys--Thi^5,8 --BK] (H-KKRPPG[2Thi]SP[2Thi]R-OH)
% DESTRUCTION (kininases [1]): 0%

N=C(N)NCCC[C@H](NC(=O)[C@H](Cc1ccccc1)NC(=O)[C@@H]1CCCN1C(=O)[C@H](CO)NC(=O)[C@H](Cc1ccccc1)NC(=O)CNC(=O)[C@@H]1CCCN1C(=O)[C@@H]1CCCN1C(=O)[C@H](CCCNC(=N)N)NC(=O)[C@H](CCCCN)NC(=O)[C@@H](N)CCCCN)C(=O)O [Lys--Lys--BK]
% DESTRUCTION (kininases [2]): 0%

NCCCC[C@H](N)C(=O)N[C@@H](CCCN=C(N)N)C(=O)N1CCC[C@H]1C(=O)N1CCC[C@H]1C(=O)NCC(=O)N[C@@H](Cc1ccccc1)C(=O)N[C@@H](CO)C(=O)N1CCC[C@H]1C(=O)N[C@@H](Cc1ccccc1)C(=O)N[C@@H](CCCN=C(N)N)C(=O)O [Lys--BK]
% DESTRUCTION (kininases [2]): 95%

N=C(N)NCCC[C@@H](N)C(=O)N[C@@H](CCCNC(=N)N)C(=O)N1CCC[C@H]1C(=O)N1CCC[C@H]1C(=O)NCC(=O)N[C@@H](Cc1ccccc1)C(=O)N[C@@H](CO)C(=O)N1CCC[C@H]1C(=O)N[C@@H](Cc1ccccc1)C(=O)N[C@@H](CCCNC(=N)N)C(=O)O [DArg--BK] (H-[dR]RPPGFSPFR-OH)
% DESTRUCTION (kininases [2]): 92%

RPPGFSPFR [Bradykinin (BK), Arg-Pro-Pro-Gly-Phe-Ser-Pro-Phe-Arg]
pD2 value (negative log of dose causing half maximal contraction) (isolated rat uterus; rat uterus): 7.9
pD2 value (negative log of dose causing half maximal contraction) ([3]; guinea pig ileum): 7.4
destruction on a single passage through the pulmonary circulation (kininases [4]): 98-99%
half life in the systemic circulation [5]: less than 30 seconds
% DESTRUCTION (kininases [1]): 98%

N=C(N)NCCC[C@H](NC(=O)[C@H](Cc1ccccc1)NC(=O)[C@@H]1CCCN1C(=O)[C@H](CO)NC(=O)[C@H](Cc1ccccc1)NC(=O)CNC(=O)[C@@H]1CCCN1C(=O)[C@@H]1CCCN1C(=O)[C@H](CCCNC(=N)N)NC(=O)[C@H](N)CCCCN)C(=O)O [DLys--BK]
% DESTRUCTION (kininases [2]): 89%

N=C(N)NCCC[C@H](NC(=O)[C@H](Cc1cccs1)NC(=O)[C@@H]1CCCN1C(=O)[C@H](CO)NC(=O)[C@H](Cc1cccs1)NC(=O)CNC(=O)[C@@H]1CCCN1C(=O)[C@@H]1CCCN1C(=O)[C@@H](N)CCCNC(=N)N)C(=O)O [Thi^5,8 --BK] (H-RPPG[2Thi]SP[2Thi]R-OH)
% DESTRUCTION (kininases [1]): 95%

N=C(N)NCCC[C@@H](N)C(=O)N[C@@H](CCCNC(=N)N)C(=O)N1CCC[C@H]1C(=O)N1CCC[C@H]1C(=O)NCC(=O)N[C@@H](Cc1ccccc1)C(=O)N[C@@H](CO)C(=O)N[C@H](Cc1ccccc1)C(=O)N[C@@H](Cc1ccccc1)C(=O)N[C@@H](CCCNC(=N)N)C(=O)O [Example 10, DArg-Arg-Pro-Pro-Gly-Phe-Ser-DPhe-Phe-Arg]
RUT AG = agonist potency relative to BK = 100 (isolated rat uterus): 0.1%
GUINEA PIG ILEUM KAL (pA2) (guinea pig ileum; agonist kallidin (Lys-BK)): 6.0
GUINEA PIG ILEUM MK--BK (pA2) (guinea pig ileum; agonist methionyl-lysyl-BK): 6.3
GPI pA2 [3]: 5.0
GUINEA PIG ILEUM BK (pA2) [3]: 5.6
